Experimental data from ChEMBL document CHEMBL1159213, “Terezines A-D: new amino acid-derived bioactive metabolites from the coprophilous fungus Sporormiella teretispora” (1995).

Assays:
Type in all cases: functional
[1] = system: Sordaria fimicola; experiment: Antifungal activity against Sordaria fimicola NRRL 6459 assessed as reduction in radial growth at 200 ug/disk by centerpoint inoculation disk assay; parameters: scale not given: the % may be the effect or the level left
[2] = system: Staphylococcus aureus; experiment: Antibacterial activity against Staphylococcus aureus ATCC 29213 at 100 ug/disk by standard disk assay; details: read-out: IZ
[3] = system: Bacillus subtilis; experiment: Antibacterial activity against Bacillus subtilis ATCC 6051 at 100 ug/disk by standard disk assay; details: read-out: IZ
[4] = system: Candida albicans; experiment: Antifungal activity against Candida albicans ATCC 14053 at 200 ug/disk by standard disk assay; details: read-out: IZ
[5] = system: Ascobolus; experiment: Antifungal activity against Ascobolus furfuraceus NRRL 6460 assessed as reduction in radial growth at 200 ug/disk by centerpoint inoculation disk assay; parameters: scale not given: the % may be the effect or the level left

## CC(C)=CCc1cccc2c(C[C@@H]3NC(=O)[C@H](C)NC3=O)c[nH]c12 [TEREZINE D]
[1]
  Activity: 50%

## COC1=N[C@@](OC)(C(C)C)C(=O)N[C@@]1(O)[C@H](O)c1ccccc1 [TEREZINE C]
[2]
  zone of inhibition at 100 µg/disc: 8 mm
[1]
  Activity: 41%
[3]
  zone of inhibition at 100 µg/disc: 8 mm

## COC1=N[C@](OC)(C(C)C)C(=O)N[C@@]1(O)[C@H](O)c1ccccc1 [TEREZINE B]
[3]
  zone of inhibition at 100 µg/disc: 8 mm

## COc1nc(C(C)C)c(O)nc1[C@H](O)c1ccccc1 [TEREZINE A]
[2]
  zone of inhibition at 100 µg/disc: 8 mm
[4]
  zone of inhibition at 200 µg/disc: 8 mm
[1]
  Activity: 95%
[5]
  Activity: 95%
[3]
  zone of inhibition at 100 µg/disc: 8 mm
